Reference: US20260364124A1, “ANTI-C. DIFFICILE SMALL MOLECULE METABOLITES FROM DIET AND GUT MICROBIOME” (The Children's Medical Center Corporation, priority 2023, published 2026)

Tested on: C. difficile M7404
Assay: In vitro polydatin bioactivation and C. difficile antagonism by conditioned (spent) media of B. uniformis AgshD
Type: cell-based, Clostridioides difficile
Conditions: polydatin 500 μM, 1/2-diluted, C. difficile M7404 growth 12 h (FIG. 5A)
Description: FIGS. 5A and 5B show microbiome-mediated polyphenol aglycone liberation. […] Step 2: Spent media was filter-sterilized. Step 3: C. difficile was grown in spent media from either vehicle or polydatin (top).
Generation of Bacteroides gene deletion mutants: Clean deletion mutants were created by allelic replacement whereby Bacteroides uniformis ATCC 8492 gshD (BACUNI_00919)was deleted. A modified pKNOCK-bla-ermGb suicide vector, pKNOCK-bla-ermGb_pheS*, that was previously engineered with a counter-selection system mediated by a variant phenylalanyl-tRNA synthetase (PheSA303G), lethal in the presence of 4-chloro-phenylalanine was leveraged. To generate deletion constructs, 1 kb regions flanking the genomic region-of-interest were amplified by PCR (Platinum SuperFi PCR Master Mix), purified, and cloned into the pKNOCK-bla-ermGb_pheS* plasmid in a three-piece ligation reaction. To mobilize resulting plasmids into Bacteroides, a triparental mating strategy was implemented. Overnight cultures of Bacteroides grown in BSG were diluted 50-fold into fresh pre-reduced BSG and grown to early exponential phase (OD600 ~0.1). The recipient strain was centrifuged at 4,000 rpm for 5 minutes and resuspended in 200 μL of 1× PBS. One-day-old E. coliDH5α lambda pir donor strain and E. coliDH5α helper strain with pRK 231 were scrapped from LB agar plates into 200 μL of 1× PBS. […]

## OC[C@H]1O[C@@H](Oc2cc(O)cc(/C=C/c3ccc(O)cc3)c2)[C@H](O)[C@@H](O)[C@@H]1O [polydatin]
  anti-C. difficile activity of conditioned media from B. uniformis gshD mutant grown with polydatin: ablated in B. uniformis AgshD
